These are literature values, as cited in patent US20240366545A1, “ANTIBACTERIAL PORPHYRIN NANOPARTICLES AND METHODS FOR MAKING AND USING THE SAME” (priority 2021, published 2024).

In the data set the test system is normal mammalian cells.

Take `CCCCCCCCCCCCCCCC[N+](C)(C)C.[Br-]` [CTAB, cetyl trimethylammonium bromide]: the toxic concentration is ≥ 10 µM.
